The values that follow come from patent US20210403864A1, “METHODS AND COMPOSITIONS FOR TREATING ACTIVATED G-ALPHA Q MUTANT CANCERS OR MELANOCYTIC MALIGNANCIES” (Memorial Sloan Kettering Cancer Center, priority 2018, published 2021).

Test [1] relates to GNAQ^Q209L-expressing melan-a cells. The experiment in a line: TPA-independent cell growth, CellTiter-glo 2.0. It is filed as cell-based, mouse. As to conditions: 5 days. The method, then: (§1) Data are expressed as the percentage relative light units (RLU) relative to that observed with vehicle. Error bars, s.e.m. from triplicate samples.
(§2) Data are expressed as the percentage RLU relative to that observed with vehicle. Error bars, s.e.m. from triplicate samples.
(§3) Cell Culture and in vitro analysis. Mutation dependent melan-a cells were generated by transducing cells with cDNAs in MSCV-PURO (retrovirus) and then selecting cells with puromycin (1 μg/ml) for two days. TPA (Sigma-Aldrich, St. Louis, Mo.) was then withdrawn from cultures. Cells with activating mutations (CYSLTR2^L129Q, GNAQ^G48V/R183Q/Q209L, KRAS^G12V, and BRAF^V600E) continued to proliferate over several passages (>2 weeks) and were then validated with qRT-PCR and immunoblots. Vector and WT controls were unable to maintain proliferation after a couple passages upon TPA withdrawal. All cells were cultured in media containing 10% FBS, L-glutamine ([…]), penicillin (100 U/ml), streptomycin (100 μg/ml). Melan-a cells provided by D. Bennett, St. George's Hospital, University of London (Johnson C P, et al., PLoS One. 12(6):1-17 (2017)), were cultured in RPMI supplemented with 200 nM TPA unless otherwise noted. HEK293T (from ATCC, Manassas, Va.) cells were cultured in DMEM-Q and UVM cells were cultured in RPMI. All cells tested negative for mycoplasma. Cell growth assays and YM dose response curves were assayed using CellTiter-glo 2.0 (Promega, Madison, Wis.) at given time points or after five days of incubation with YM and readout on a Glomax Luminometer (Promega, Madison, Wis.). IC50 values were calculated using Prism 7.0 software. Growth assays were compared to day 1 readings and dose response curves were compared to vehicle. Data shown is representative of at least three independent experiments with at least three technical replicates. Dose-response curves and growth assays were analyzed using GraphPad Prism 7.0 software.
For orientation: ATP-based viability assays read luminescence as a measure of living cells.

Test [2] relates to CYSLTR2^L129Q-expressing melan-a cells. The experiment in a line: TPA-independent cell growth, CellTiter-glo 2.0. The class given is cell-based, mouse. As to conditions: 5 days. Here is the method:
as §1, §2, §3

Test [3] relates to CYSLTR2^L129Q. Briefly: IP1 accumulation assay in transiently transfected HEK293T cells. The class given is cell-based, human. As to conditions: 24-hour treatment. Here is the method: Cells were treated with YM at increasing doses for 24 hours. Error bars, s.e.m. from three biological replicates, each with three technical replicates.
Exogenous Gene Expression. HEK293T cells were transiently transfected to express vectors containing synthetic CYSLTR2 (Moore A R, et al., Nat Genet. 48(6):675 (2016)) and GNAQ. Genewiz was used to codon optimize these sequences for expression in mammalian cells. The human GNAQ α-subunit plasmids encoding for GNAQ mutants Q209L, R183Q and G48V were generated by Quick Change (Agilent Technologies, Santa Clara, Calif.) site-directed mutagenesis. […]
IP1 Accumulation Assay. IP1 concentrations in GNAQ-transfected HEK293T cells, GNAQ-expressing melan-a cells and uveal melanoma cells was measured using a competitive homogenous time resolved fluorescence (HTRF) assay (CisBio, Bedford, Mass.). […] Following incubation, cells were lysed by adding 3 μL/well of d2-labeled IP1 analogue as the fluorescence acceptor and the Terbium cryptate-labeled anti-IP1 mAb as the fluorescence donor, diluted in the kit-supplied lysis buffer. The plates were incubated overnight at RT and time-resolved fluorescence signals were read using the BioTek Synergy NEO plate reader (BioTek Instruments, Winooski, Vt.) at 620 nm and 655 nm. […] Dose-response curves and bar graphs were analyzed using GraphPad Prism 7.0 software. […]

Test [4] deals with BRAF-mutant A375 cutaneous melanoma cells. The experiment in a line: Colony formation assay. As to conditions: 1000 cells per well, until colonies visible in vehicle plates. It is filed as cell-based, human. The method, then:
(§4) To evaluate the effect of YM-254890 and trametinib in vitro, colony formation assays were performed. 1000 cells per well of the following cell lines were plated: (1) BRAF-mutant A375 cutaneous melanoma cells, (2) Gq-mutant Mel202 cells, and (3) Gq-mutant OMIM1.3 uveal melanoma cells. The cells were then treated with a negative vehicle control, YM-254890, trametinib, or both. Cells were allowed to grow until visible colonies formed in the vehicle-treated plates.

Test [5] has as its system Gq-mutant Mel202 cells. Briefly: Colony formation assay. It is filed as cell-based, human. The note with it: 1000 cells per well, until colonies visible in vehicle plates. Here is the method:
as §4

For test [6], the system named is Gq-mutant OMIM1.3 uveal melanoma cells. Briefly: Colony formation assay. The class given is cell-based, human. As to conditions: 1000 cells per well, until colonies visible in vehicle plates. The method, then: as §4

Consider YM-254890, for which the “YM-mediated growth inhibition in the presence of TPA” value in test [1] (with TPA) and in test [2] (with TPA) was “rescued” each time. Also, the “sensitivity of TPA-independent cell growth to YM” value in test [1] (without TPA) was “modestly less sensitive”; in test [2] (without TPA), “sub-nanomolar sensitivity”. For the same substance, in test [3], the “potency of inhibition of IP1 accumulation” value is “subnanomolar potency”. Moreover, the values for the colony formation result in test [4], in test [5] and in test [6] were “resistant”, “moderate sensitivity” and “moderate sensitivity”, respectively.
